Assays:
Format in all cases: biochemical
ISW1a = ISW1a (Saccharomyces cerevisiae, UniProt P38144); experiment: nucleosome mobilization, native gel shift; settings: 70N0 nucleosomes, 90 or 800 µM ATP, 5 mM MgCl2, pH 7.6, 20°C
ISW2 [1] = biological target: T1, ISW2 (Saccharomyces cerevisiae, UniProt Q08773); experiment: nucleosome mobilization, native gel shift; settings: 70N0 nucleosomes, 90 or 800 µM ATP, 5 mM MgCl2, pH 7.6, 20°C
ISW2 [2] = biological target: T1, ISW2; experiment: competitive inhibitor assay against ATP; settings: competitive with ATP at active site

T1 sequence (Q08773 whole entry): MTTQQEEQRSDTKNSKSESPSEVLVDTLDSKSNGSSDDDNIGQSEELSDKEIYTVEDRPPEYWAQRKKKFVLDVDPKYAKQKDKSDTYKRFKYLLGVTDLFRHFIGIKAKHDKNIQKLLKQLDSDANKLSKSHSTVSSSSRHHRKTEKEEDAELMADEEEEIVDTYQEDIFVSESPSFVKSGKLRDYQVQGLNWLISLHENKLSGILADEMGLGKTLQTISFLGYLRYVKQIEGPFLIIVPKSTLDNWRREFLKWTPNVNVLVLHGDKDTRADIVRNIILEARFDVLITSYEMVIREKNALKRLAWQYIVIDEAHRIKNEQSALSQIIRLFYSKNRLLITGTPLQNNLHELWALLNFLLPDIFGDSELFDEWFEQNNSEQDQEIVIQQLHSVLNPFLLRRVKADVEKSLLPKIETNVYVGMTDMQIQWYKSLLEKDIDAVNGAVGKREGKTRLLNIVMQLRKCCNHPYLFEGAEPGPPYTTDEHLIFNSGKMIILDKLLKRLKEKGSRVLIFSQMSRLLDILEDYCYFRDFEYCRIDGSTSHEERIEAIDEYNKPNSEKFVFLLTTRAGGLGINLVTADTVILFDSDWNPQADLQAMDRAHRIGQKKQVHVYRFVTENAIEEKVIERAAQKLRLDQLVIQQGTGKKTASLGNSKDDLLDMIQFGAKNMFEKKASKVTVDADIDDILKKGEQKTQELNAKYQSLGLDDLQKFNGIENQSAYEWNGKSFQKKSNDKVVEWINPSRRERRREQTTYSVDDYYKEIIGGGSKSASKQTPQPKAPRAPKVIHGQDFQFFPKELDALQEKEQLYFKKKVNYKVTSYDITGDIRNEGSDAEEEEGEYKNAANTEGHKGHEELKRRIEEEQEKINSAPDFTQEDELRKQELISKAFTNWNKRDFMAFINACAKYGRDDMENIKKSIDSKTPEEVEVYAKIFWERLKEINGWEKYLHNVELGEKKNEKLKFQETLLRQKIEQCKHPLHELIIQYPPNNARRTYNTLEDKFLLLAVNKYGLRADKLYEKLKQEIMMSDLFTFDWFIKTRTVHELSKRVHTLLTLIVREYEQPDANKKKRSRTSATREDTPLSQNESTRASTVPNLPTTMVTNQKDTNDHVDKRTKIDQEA
T1 sequence (P53125 whole entry partner): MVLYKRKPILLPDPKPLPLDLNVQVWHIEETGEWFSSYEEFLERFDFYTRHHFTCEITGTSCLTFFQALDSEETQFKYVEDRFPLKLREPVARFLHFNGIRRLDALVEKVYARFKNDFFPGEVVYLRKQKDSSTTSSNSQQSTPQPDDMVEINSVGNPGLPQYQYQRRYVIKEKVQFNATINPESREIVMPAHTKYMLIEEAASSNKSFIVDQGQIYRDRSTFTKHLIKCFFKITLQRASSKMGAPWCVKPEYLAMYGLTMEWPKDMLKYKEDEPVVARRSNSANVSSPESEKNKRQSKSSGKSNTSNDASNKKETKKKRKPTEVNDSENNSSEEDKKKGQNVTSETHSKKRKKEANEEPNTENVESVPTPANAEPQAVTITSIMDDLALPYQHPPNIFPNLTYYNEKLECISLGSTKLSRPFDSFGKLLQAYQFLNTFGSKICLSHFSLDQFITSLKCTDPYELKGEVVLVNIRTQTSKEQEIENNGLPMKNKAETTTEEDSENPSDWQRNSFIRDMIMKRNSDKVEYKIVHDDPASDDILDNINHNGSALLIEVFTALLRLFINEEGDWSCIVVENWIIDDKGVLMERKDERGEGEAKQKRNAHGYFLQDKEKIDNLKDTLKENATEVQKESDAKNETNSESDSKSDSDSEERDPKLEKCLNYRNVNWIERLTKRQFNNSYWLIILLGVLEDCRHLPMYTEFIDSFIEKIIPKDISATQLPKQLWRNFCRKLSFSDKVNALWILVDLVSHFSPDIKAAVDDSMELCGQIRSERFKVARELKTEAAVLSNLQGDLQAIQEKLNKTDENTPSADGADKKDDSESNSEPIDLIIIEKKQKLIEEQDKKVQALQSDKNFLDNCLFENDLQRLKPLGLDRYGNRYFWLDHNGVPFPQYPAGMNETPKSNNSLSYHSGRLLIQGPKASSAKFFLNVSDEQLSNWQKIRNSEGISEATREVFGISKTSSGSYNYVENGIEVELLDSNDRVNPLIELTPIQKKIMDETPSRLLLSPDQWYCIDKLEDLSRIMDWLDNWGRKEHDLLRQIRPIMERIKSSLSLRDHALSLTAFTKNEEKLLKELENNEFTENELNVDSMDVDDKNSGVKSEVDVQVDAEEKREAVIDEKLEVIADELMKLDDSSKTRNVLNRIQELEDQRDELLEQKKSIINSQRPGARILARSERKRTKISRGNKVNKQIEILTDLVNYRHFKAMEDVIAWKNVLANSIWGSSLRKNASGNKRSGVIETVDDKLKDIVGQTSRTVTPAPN
T1 sequence (Q04603 whole entry partner): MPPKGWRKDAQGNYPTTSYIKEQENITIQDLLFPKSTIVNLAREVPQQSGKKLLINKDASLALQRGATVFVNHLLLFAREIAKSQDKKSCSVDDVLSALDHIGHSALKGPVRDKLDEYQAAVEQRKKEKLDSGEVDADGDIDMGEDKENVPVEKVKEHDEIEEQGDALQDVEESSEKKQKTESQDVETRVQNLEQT
T1 sequence (P40366 whole entry partner): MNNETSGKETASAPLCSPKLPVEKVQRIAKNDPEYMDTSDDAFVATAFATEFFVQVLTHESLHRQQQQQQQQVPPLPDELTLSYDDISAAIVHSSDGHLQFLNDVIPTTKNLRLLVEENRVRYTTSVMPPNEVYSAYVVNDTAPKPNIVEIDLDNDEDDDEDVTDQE
Sequence of ISW1a (P38144 whole entry): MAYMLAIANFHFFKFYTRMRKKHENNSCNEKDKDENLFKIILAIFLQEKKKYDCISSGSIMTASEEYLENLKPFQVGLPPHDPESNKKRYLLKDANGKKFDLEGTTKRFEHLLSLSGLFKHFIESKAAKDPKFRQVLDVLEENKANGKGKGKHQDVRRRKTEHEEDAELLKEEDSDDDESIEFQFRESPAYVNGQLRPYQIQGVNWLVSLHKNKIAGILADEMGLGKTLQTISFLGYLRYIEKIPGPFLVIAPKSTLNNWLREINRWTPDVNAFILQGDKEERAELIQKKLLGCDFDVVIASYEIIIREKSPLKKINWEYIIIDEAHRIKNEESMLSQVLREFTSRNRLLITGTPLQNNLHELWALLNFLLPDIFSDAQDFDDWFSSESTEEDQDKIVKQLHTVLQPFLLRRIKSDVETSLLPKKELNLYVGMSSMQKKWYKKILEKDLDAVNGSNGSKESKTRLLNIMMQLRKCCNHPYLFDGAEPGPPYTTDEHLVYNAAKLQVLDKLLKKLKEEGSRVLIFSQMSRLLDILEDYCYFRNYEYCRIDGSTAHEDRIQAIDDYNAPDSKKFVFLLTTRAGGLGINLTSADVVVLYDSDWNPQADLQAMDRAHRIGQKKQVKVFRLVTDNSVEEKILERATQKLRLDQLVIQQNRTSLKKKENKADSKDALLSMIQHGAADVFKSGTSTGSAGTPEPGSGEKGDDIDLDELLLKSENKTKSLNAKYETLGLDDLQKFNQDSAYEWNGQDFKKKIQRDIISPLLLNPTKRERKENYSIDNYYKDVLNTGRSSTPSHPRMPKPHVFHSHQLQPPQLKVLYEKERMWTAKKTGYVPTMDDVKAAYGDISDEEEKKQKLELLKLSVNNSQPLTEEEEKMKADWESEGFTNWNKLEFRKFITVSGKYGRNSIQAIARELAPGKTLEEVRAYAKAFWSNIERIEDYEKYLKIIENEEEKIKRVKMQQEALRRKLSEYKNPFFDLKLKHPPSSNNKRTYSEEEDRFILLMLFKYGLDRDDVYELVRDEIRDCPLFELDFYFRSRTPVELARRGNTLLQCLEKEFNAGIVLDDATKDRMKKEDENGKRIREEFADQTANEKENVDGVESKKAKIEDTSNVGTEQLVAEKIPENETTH
Sequence of ISW1a (P43596 whole entry partner): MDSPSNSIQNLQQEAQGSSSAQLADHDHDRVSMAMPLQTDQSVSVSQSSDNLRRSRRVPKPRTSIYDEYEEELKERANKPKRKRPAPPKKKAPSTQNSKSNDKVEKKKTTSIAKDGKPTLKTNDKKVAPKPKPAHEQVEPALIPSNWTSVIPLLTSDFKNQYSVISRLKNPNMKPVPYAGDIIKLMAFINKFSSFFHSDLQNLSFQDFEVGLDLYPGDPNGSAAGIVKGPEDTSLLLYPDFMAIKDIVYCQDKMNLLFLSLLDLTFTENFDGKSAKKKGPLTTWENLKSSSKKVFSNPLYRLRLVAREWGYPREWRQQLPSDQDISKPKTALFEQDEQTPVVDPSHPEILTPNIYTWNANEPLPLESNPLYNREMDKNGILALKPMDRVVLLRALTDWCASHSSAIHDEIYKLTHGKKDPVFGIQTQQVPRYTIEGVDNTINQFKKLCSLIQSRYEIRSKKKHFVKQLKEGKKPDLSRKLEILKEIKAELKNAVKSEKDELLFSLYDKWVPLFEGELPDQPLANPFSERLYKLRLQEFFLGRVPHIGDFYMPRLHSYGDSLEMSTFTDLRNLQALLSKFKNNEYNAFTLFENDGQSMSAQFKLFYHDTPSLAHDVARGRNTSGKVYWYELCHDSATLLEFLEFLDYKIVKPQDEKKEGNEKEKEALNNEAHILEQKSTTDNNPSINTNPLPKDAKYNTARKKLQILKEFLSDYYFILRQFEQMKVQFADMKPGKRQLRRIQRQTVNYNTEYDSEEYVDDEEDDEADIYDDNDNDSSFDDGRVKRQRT

## Nc1ncnc2c1ncn2[C@@H]1O[C@H](COP(=O)(O)OP(=O)(O)OP(=O)(O)O)[C@@H](O)[C@H]1O [ATP]
ISW1a
  nucleosome mobilization, native gel shift: ATP was found to be required for template commitment by ISW1a
ISW2 [1]
  nucleosome mobilization, native gel shift: Template commitment of ISW2 required initiation of the remodeling process rather than just ISW2 binding

## Nc1ncnc2c1ncn2[C@@H]1O[C@H](COP(=O)(O)OP(=O)(O)O)[C@@H](O)[C@H]1O [ADP]
ISW2 [2]
  competitive inhibitor assay against ATP: ADP and γ-S-ATP were shown to be bound at the active site of ISW2
